Data taken from patent publication US9708293B2, “N-(pyridin-2-yl)pyrimidin-4-amine derivatives containing a sulfone group” (BAYER PHARMA AKTIENGESELLSCHAFT, priority 2012, dated 2017).

Key:
HeLa cells = assay: Proliferation assay, HeLa; format: cell-based; conditions: Homo sapiens, 96 h, 4 days, crystal violet, read-out: Inhibition of HeLa cell proliferation IC50
Experimental: (§1) Cultivated tumour cells (HeLa, human cervical tumour cells, ATCC CCL-2; NCI-H460, human non-small cell lung carcinoma cells, ATCC HTB-177; A2780, human ovarian carcinoma cells, ECACC #93112519; DU 145, hormone-independent human prostate carcinoma cells, ATCC HTB-81; HeLa-MaTu-ADR, multidrug-resistant human cervical carcinoma cells, EPO-GmbH Berlin; Caco-2, human colorectal carcinoma cells, ATCC HTB-37; B16F10, mouse melanoma cells, ATCC CRL-6475) were plated at a density of 5,000 cells/well (DU145, HeLa-MaTu-ADR), 3,000 cells/well (NCI-H460, HeLa), 2,500 cells/well (A2780), 1,500 cells/well (Caco-2), or 1,000 cells/well (B16F10) in a 96-well multititer plate in 200 μL of their respective growth medium supplemented 10% fetal calf serum. After 24 hours, the cells of one plate (zero-point plate) were stained with crystal violet (see below), while the medium of the other plates was replaced by fresh culture medium (200 μl), to which the test substances were added in various concentrations (0 μM, as well as in the range of 0.001-10 μM; the final concentration of the solvent dimethyl sulfoxide was 0.5%). The cells were incubated for 4 days in the presence of test substances. Cell proliferation was determined by staining the cells with crystal violet: the cells were fixed by adding 20 μl/measuring point of an 11% glutaric aldehyde solution for 15 minutes at room temperature. After three washing cycles of the fixed cells with water, the plates were dried at room temperature. The cells were stained by adding 100 μl/measuring point of a 0.1% crystal violet solution (pH 3.0). After three washing cycles of the stained cells with water, the plates were dried at room temperature. The dye was dissolved by adding 100 μl/measuring point of a 10% acetic acid solution. The extinction was determined by photometry at a wavelength of 595 nm. The change of cell number, in percent, was calculated by normalization of the measured values to the extinction values of the zero-point plate (=0%) and the extinction of the untreated (0 μm) cells (=100%). […]

DU145 cells = assay: Proliferation assay, DU145; format: cell-based; conditions: Homo sapiens, DU-145, 96 h; 4 days, crystal violet; read-out: Inhibition of DU145 cell proliferation IC50
Experimental: as §1

CDK2/CycE = biological target: T1, CDK2/CycE (Homo sapiens, UniProt P24941); assay: CDK2/CycE high ATP kinase assay (Method 2b); format: biochemical; conditions: 2 mM ATP, read-out: high ATP CDK2: CDK2/CycE1 kinase assay IC50
T1 construct: GST; purchased ProQinase GmbH (Freiburg, Germany); host or cells: insect cells (Sf9)
Experimental: 2b. CDK2/CycE High ATP Kinase Assay
CDK2/CycE-inhibitory activity of compounds of the present invention at 2 mM adenosine-tri-phosphate (ATP) was quantified employing the CDK2/CycE TR-FRET (TR-FRET=Time Resolved Fluorescence Energy Transfer) assay as described in the following paragraphs.
Recombinant fusion proteins of GST and human CDK2 and of GST and human CycE, expressed in insect cells (Sf9) and purified by Glutathion-Sepharose affinity chromatography, were purchase from ProQinase GmbH (Freiburg, Germany). As substrate for the kinase reaction biotinylated peptide biotin-Ttds-YISPLKSPYKISEG (C-terminus in amid form) was used which can be purchased e.g. form the company JERINI peptide technologies (Berlin, Germany).
For the assay 50 nl of a 100 fold concentrated solution of the test compound in DMSO was pipetted into a black low volume 384 well microtiter plate (Greiner Bio-One, Frickenhausen, Germany), 2 μl of a solution of CDK2/CycE in aqueous assay buffer [50 mM Tris/HCl pH 8.0, 10 mM MgCl2, 1.0 mM dithiothreitol, 0.1 mM sodium ortho-vanadate, 0.01% (v/v) Nonidet-P40 (Sigma)] were added and the mixture was incubated for 15 min at 22° C. to allow pre-binding of the test compounds to the enzyme before the start of the kinase reaction. Then the kinase reaction was started by the addition of 3 μl of a solution ATP (3.33 mM=>final conc. in the 5 μl assay volume is 2 mM) and substrate (1.25 μM=>final conc. in the 5 μl assay volume is 0.75 μM) in assay buffer and the resulting mixture was incubated for a reaction time of […] at 22° C. The concentration of CDK2/CycE was adjusted depending of the activity of the enzyme lot and was chosen appropriate to have the assay in the linear range, typical concentrations were in the range of 15 ng/ml. […]
The resulting mixture was incubated 1 h at 22° C. to allow the formation of complex between the phosphorylated biotinylated peptide and the detection reagents. Subsequently the amount of phosphorylated substrate was evaluated by measurement of the resonance energy transfer from the Eu-chelate to the streptavidine-XL. Therefore, the fluorescence emissions at 620 nm and 665 nm after excitation at 350 nm wer measured in a TR-FRET reader, e.g. a Rubystar (BMG Labtechnologies, Offenburg, Germany) or a Viewlux (Perkin-Elmer). […]

NCI-H460 cells = assay: Proliferation assay, NCI-H460; format: cell-based; conditions: Homo sapiens, NCI-H460, 96 h; 4 days, crystal violet; read-out: Inhibition of NCI-H460 cell proliferation IC50
Experimental: as §1

Caco-2 cells = assay: Proliferation assay, Caco-2; format: cell-based; conditions: Homo sapiens, Caco-2, 96 h; 4 days, crystal violet; read-out: Inhibition of Caco-2 cell proliferation IC50
Experimental: as §1

B16F10 cells = assay: Proliferation assay, B16F10; format: cell-based; conditions: Mus musculus, B16-F10, 96 h; 4 days, crystal violet; read-out: Inhibition of B16F10 cell proliferation IC50
Experimental: as §1

For `COc1cc(F)ccc1-c1cc(Nc2cc(CS(C)(=O)=O)ccn2)ncn1` [Example 1, 6-(4-Fluoro-2-methoxyphenyl)-N-{4-[(methylsulfonyl)methyl]pyridin-2-yl}pyrimidin-4-amine], the IC50 (HeLa cells) was 101 nM, the IC50 (DU145 cells) was 195 nM and the IC50 (CDK2/CycE) was no less than 20000 nM. It also gave an IC50 (NCI-H460 cells) of 317 nM, an IC50 (Caco-2 cells) of 341 nM and an IC50 (B16F10 cells) of 289 nM.

With `COc1cc(F)ccc1-c1cc(Nc2cc(CS(C)(=O)=O)cc(C(F)(F)F)n2)ncn1` [Example 3, 6-(4-Fluoro-2-methoxyphenyl)-N-{4-[(methylsulfonyl)methyl]-6-(trifluoromethyl)pyridin-2-yl}pyrimidin-4-amine] the IC50 (HeLa cells) was 24 nM, the IC50 (DU145 cells) was 34 nM and the IC50 (CDK2/CycE) was 371 nM. The IC50 (NCI-H460 cells) was 55 nM, the IC50 (Caco-2 cells) was 52 nM and the IC50 (B16F10 cells) was 34 nM.

With `COc1cc(F)ccc1-c1cc(Nc2cc(CS(C)(=O)=O)cc(C)n2)ncn1` [Example 2, 6-(4-Fluoro-2-methoxyphenyl)-N-{6-methyl-4-[(methylsulfonyl)methyl]pyridin-2-yl}pyrimidin-4-amine] the IC50 (HeLa cells) was 76 nM, the IC50 (DU145 cells) was 75 nM and the IC50 (CDK2/CycE) was 2250 nM. It also gave an IC50 (NCI-H460 cells) of 95 nM, an IC50 (Caco-2 cells) of 91 nM and an IC50 (B16F10 cells) of 101 nM.

`COc1cc(F)ccc1-c1cc(Nc2cc(CS(C)(=O)=O)cc(F)n2)ncn1` [Example 4, 6-(4-Fluoro-2-methoxyphenyl)-N-{6-fluoro-4-[(methylsulfonyl)methyl]pyridin-2-yl}pyrimidin-4-amine] gave an IC50 (CDK2/CycE) of 1870 nM.
